The source of these data is patent US8586747B2, “3,3-dimethyl tetrahydroquinoline derivatives” (Hoffmann-La Roche Inc., priority 2010, dated 2013).

The test system of this assay is AMP-activated protein kinase (AMPK). Kind of assay: ADP Quest assay for AMPK activators. In kind it is biochemical. On the set-up: key: fold AMPK activation with vs without activator at 30 µM. As to conditions: fold of AMPK activation to phosphorylate SAMS peptide without and with an activator at the concentration of 30 µM. The method, boiled down: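 E30, the fold increase in SAMS peptide phosphorylation at 30 µM compound relative to no activator, is derived from kinetic fluorescent detection of ADP (ex 530, em 590 nm). AMPK starts the ATP-containing reaction at room temperature; compounds span […] by 2-fold steps, AMP serves as reference.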

Regarding `CC1(C)Cc2cc(C(=O)O)ccc2NC1c1ccc(NC(=O)c2ccc(F)cc2)cc1` (stereo not shown) [Example 182, 2-(4-(4-Fluorobenzamido)phenyl)-3,3-dimethyl-1,2,3,4-tetrahydroquinoline-6-carboxylic acid], the E30 amounted to 1.26.
`Cc1ccc(S(=O)(=O)Nc2ccc(C3Nc4ccc(C(=O)O)cc4CC3(C)C)cc2)cc1` (stereo not shown) [Example 183, 3,3-Dimethyl-2-(4-(4-methylphenylsulfonamido)phenyl)-1,2,3,4-tetrahydroquinoline-6-carboxylic acid] came in with an E30 of 1.25.
Take `CC1(C)Cc2cc(C(=O)O)ccc2NC1c1ccc(F)c(NC(=O)c2ccccc2)c1` (stereo not shown) [Example 184, 2-(3-Benzamido-4-fluorophenyl)-3,3-dimethyl-1,2,3,4-tetrahydroquinoline-6-carboxylic acid]: the E30 came out at 1.24.
For `CC1(C)Cc2cc(C(=O)O)ccc2NC1c1ccc(NC(=O)c2ccccc2)cc1` (stereo not shown) [Example 185, 2-(4-Benzamidophenyl)-3,3-dimethyl-1,2,3,4-tetrahydroquinoline-6-carboxylic acid] the value was 1.22; for `CC1(C)Cc2cc(C(=O)O)ccc2NC1c1ccc(NC(=O)c2ccccn2)cc1` (stereo not shown) [Example 186, 3,3-Dimethyl-2-(4-(picolinamido)phenyl)-1,2,3,4-tetrahydroquinoline-6-carboxylic acid], 1.21; for `CNC(=O)c1cccc(C2Nc3ccc(C(=O)O)cc3CC2(C)C)c1` (stereo not shown) [Example 187, 3,3-Dimethyl-2-(3-(methylcarbamoyl)phenyl)-1,2,3,4-tetrahydroquinoline-6-carboxylic acid], 1.38.
Molecule `CC1(C)Cc2cc(C(=O)O)ccc2NC1c1ccc(F)c(NC(=O)C2CC2)c1` (stereo not shown) [Example 189, 2-(3-(Cyclopropanecarboxamido)-4-fluorophenyl)-3,3-dimethyl-1,2,3,4-tetrahydroquinoline-6-carboxylic acid] came in with an E30 of 1.31.
`CC1(C)Cc2cc(C(=O)O)ccc2NC1c1ccc(F)c(NC(=O)c2ccc(F)cc2Cl)c1` (stereo not shown) [Example 190, 2-(3-(2-Chloro-4-fluorobenzamido)-4-fluorophenyl)-3,3-dimethyl-1,2,3,4-tetrahydroquinoline-6-carboxylic acid] came in with an E30 of 1.3.
In the case of `CC1(C)Cc2cc(C(=O)O)ccc2NC1c1cccc(C(=O)N2CCCCC2)c1` (stereo not shown) [Example 191, 3,3-Dimethyl-2-(3-(piperidine-1-carbonyl)phenyl)-1,2,3,4-tetrahydroquinoline-6-carboxylic acid] it was 1.27; in that of `COCCNC(=O)c1cccc(C2Nc3ccc(C(=O)O)cc3CC2(C)C)c1` (stereo not shown) [Example 192, 2-(3-(2-Methoxyethylcarbamoyl)phenyl)-3,3-dimethyl-1,2,3,4-tetrahydroquinoline-6-carboxylic acid], 1.27.
`CC1(C)Cc2cc(C(=O)O)ccc2NC1c1ccc(NC(=O)Cc2ccccc2)cc1` (stereo not shown) [Example 193, 3,3-Dimethyl-2-(4-(2-phenylacetamido)phenyl)-1,2,3,4-tetrahydroquinoline-6-carboxylic acid] registered an E30 of 1.26.
In the case of `CC1(C)Cc2cc(C(=O)O)ccc2NC1c1ccc(F)c(NC(=O)C2CCC2)c1` (stereo not shown) [Example 194, 2-(3-(Cyclobutanecarboxamido)-4-fluorophenyl)-3,3-dimethyl-1,2,3,4-tetrahydroquinoline-6-carboxylic acid], the E30 turned out to be 1.25.
For `CC1(C)Cc2cc(C(=O)O)ccc2NC1c1ccc(Cl)c(NC(=O)C2CCCCC2)c1` (stereo not shown) [Example 195, 2-(4-Chloro-3-(cyclohexanecarboxamido)phenyl)-3,3-dimethyl-1,2,3,4-tetrahydroquinoline-6-carboxylic acid] the value was 1.25.
In the case of `CC1(C)Cc2cc(C(=O)O)ccc2NC1c1ccc(F)c(NC(=O)C2CCCC2)c1` (stereo not shown) [Example 196, 2-(3-(Cyclopentanecarboxamido)-4-fluorophenyl)-,3-dimethyl-1,2,3,4-tetrahydroquinoline-6-carboxylic acid] it was 1.25.
The molecule `COC(=O)c1ccc2c(c1)CC(C)(C)C(c1cccc(C(=O)Nc3cnccn3)c1)N2` (stereo not shown) [Example 197, Methyl 3,3-dimethyl-2-(3-(pyrazin-2-ylcarbamoyl)-phenyl)-1,2,3,4-tetrahydroquinoline-6-carboxylate] came in with an E30 of 1.22.
Consider `CC1(C)Cc2cc(C(=O)O)ccc2NC1c1cccc(C(N)=O)c1` (stereo not shown) [Example 200, 2-(3-Carbamoylphenyl)-3,3-dimethyl-1,2,3,4-tetrahydroquinoline-6-carboxylic acid], for which the E30 was 1.58.
In the case of `CC1(C)Cc2cc(C(=O)O)ccc2NC1c1cccc(NS(C)(=O)=O)c1` (stereo not shown) [Example 201, 3,3-Dimethyl-2-(3-(methylsulfonamido)phenyl)-1,2,3,4-tetrahydroquinoline-6-carboxylic acid] it was 1.42; in that of `CC1(C)Cc2cc(C(=O)O)ccc2NC1c1cc(Cl)cc(NC(=O)c2ccccc2)c1` (stereo not shown) [Example 202, 2-(3-Benzamido-5-chlorophenyl)-3,3-dimethyl-1,2,3,4-tetrahydroquinoline-6-carboxylic acid], 1.22.
For `CN(C)CCNC(=O)c1cccc(C2Nc3ccc(C(=O)O)cc3CC2(C)C)c1` (stereo not shown) [Example 203, 2-(3-(2-(Dimethylamino)ethylcarbamoyl)phenyl)-3,3-dimethyl-1,2,3,4-tetrahydroquinoline-6-carboxylic acid] the value was 1.53; for `CC(=O)Nc1cccc(C2Nc3ccc(C(=O)O)cc3CC2(C)C)c1` (stereo not shown) [Example 204, 2-(3-Acetamidophenyl)-3,3-dimethyl-1,2,3,4-tetrahydroquinoline-6-carboxylic acid], 1.4.
For `CCN1CCCC1CNC(=O)c1cccc(C2Nc3ccc(C(=O)O)cc3CC2(C)C)c1` (stereo not shown) [Example 205, 2-(3-((1-Ethylpyrrolidin-2-yl)methylcarbamoyl)phenyl)-3,3-dimethyl-1,2,3,4-tetrahydroquinoline-6-carboxylic acid] the value was 1.38.
The molecule `CC1(C)Cc2cc(C(=O)O)ccc2NC1c1ccc(F)c(NS(=O)(=O)c2cccc(F)c2)c1` (stereo not shown) [Example 206, 2-(4-Fluoro-3-(3-fluorophenylsulfonamido)phenyl)-3,3-dimethyl-1,2,3,4-tetrahydroquinoline-6-carboxylic acid] displayed an E30 of 1.33.
In the case of `CC(C)(C)OC(=O)N1CC(NC(=O)c2cccc(C3Nc4ccc(C(=O)O)cc4CC3(C)C)c2)C1` (stereo not shown) [Example 207, 2-(3-(1-(Tert-butoxycarbonyl)azetidin-3-ylcarbamoyl)phenyl)-3,3-dimethyl-1,2,3,4-tetrahydroquinoline-6-carboxylic acid] it was 1.32.
For `CN1CC(NC(=O)c2cccc(C3Nc4ccc(C(=O)O)cc4CC3(C)C)c2)C1` (stereo not shown) [Example 208, 3,3-Dimethyl-2-(3-(1-methylazetidin-3-ylcarbamoyl)phenyl)-1,2,3,4-tetrahydroquinoline-6-carboxylic acid], the E30 is given as 1.3.
For `CC1(C)Cc2cc(C(=O)O)ccc2NC1c1ccc(F)c(NS(=O)(=O)c2ccccc2F)c1` (stereo not shown) [Example 209, 2-(4-Fluoro-3-(2-fluorophenylsulfonamido)phenyl)-,3-dimethyl-1,2,3,4-tetrahydroquinoline-6-carboxylic acid] the value was 1.28.
